According to US20230085307A1, “PYRIDAZINONE COMPOUND AND HERBICIDE” (NISSAN CHEMICAL CORPORATION, priority 2019, published 2023):

What was measured:
[1] = tested on: late watergrass; experiment: Test Example 2: herbicidal activity, application during weed generation under submerged conditions (Table 17, symbol A); assay type: in vivo, late watergrass (Echinochloa oryzicola); conditions: AAH 320 g/ha; application during weed generation, submerged conditions
Summary of the method: (§1)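 Effect on each weed is rated three weeks post-treatment, using the same scoring criteria as the preceding test. Plants grow from mixed-sown seed in flooded alluvial soil (4 cm water) at 25° C. to 30° C., and are treated at one to two leaves with diluted emulsion dropped onto the water.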

[2] = tested on: Japanese bulrush; experiment: Test Example 2: herbicidal activity, application during weed generation under submerged conditions (Table 17, symbol B); assay type: in vivo, Japanese bulrush (Schoenoplectus juncoides); conditions: AAH 320 g/ha; application during weed generation, submerged conditions
Summary of the method: as §1

[3] = tested on: oval-leafed pondweed; experiment: Test Example 2: herbicidal activity, application during weed generation under submerged conditions (Table 17, symbol C); assay type: in vivo, oval-leafed pondweed (Monochoria vaginalis); conditions: AAH 320 g/ha; application during weed generation, submerged conditions
Summary of the method: as §1

[4] = tested on: barnyard grass; experiment: Test Example 3: herbicidal effect by foliage application, Wagner pot (Table 18, symbol H); assay type: in vivo, barnyard grass (Echinochloa crus-galli); conditions: 320 g/ha
Summary of the method: (§2)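 Plants were sown in alluvial soil held under 0.1–0.5 cm standing water and grown 14 days in a greenhouse at 25–30 °C. An emulsifiable formulation, water-diluted to the set dose, was then sprayed onto the foliage, and effects were scored three weeks later using previously defined criteria.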

[5] = tested on: Chinese sprangletop; experiment: Test Example 3: herbicidal effect by foliage application, Wagner pot (Table 18, symbol D); assay type: in vivo, chinese sprangletop (Leptochloa chinensis); conditions: 320 g/ha
Summary of the method: as §2

[6] = tested on: rice flat sedge; experiment: Test Example 3: herbicidal effect by foliage application, Wagner pot (Table 18, symbol E); assay type: in vivo, rice flat sedge (Cyperus iria); conditions: 320 g/ha
Summary of the method: as §2

[7] = tested on: southern crabgrass; experiment: Test Example 4: herbicidal effect by soil treatment (Table 19, symbol F); assay type: in vivo, southern crabgrass (Digitaria ciliaris); conditions: amount of applied herbicide 320 g/ha
Summary of the method: (§3)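 In this soil treatment, the formulated compound reached the seeds only through the soil: seeds were buried about 1.5 cm deep in sterilized diluvial soil, then the diluted emulsion was sprayed over the surface. After three weeks at 25° C. to 30° C. in a greenhouse, effects were graded on criteria from an earlier test.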

[8] = tested on: green foxtail; experiment: Test Example 4: herbicidal effect by soil treatment (Table 19, symbol G); assay type: in vivo, green foxtail (Setaria viridis); conditions: amount of applied herbicide 320 g/ha
Summary of the method: as §3

[9] = tested on: barnyard grass; experiment: Test Example 4: herbicidal effect by soil treatment (Table 19, symbol H); assay type: in vivo, barnyard grass (Echinochloa crus-galli); conditions: amount of applied herbicide 320 g/ha
Summary of the method: as §3

[10] = tested on: wild oat; experiment: Test Example 4: herbicidal effect by soil treatment (Table 19, symbol I); assay type: in vivo, wild oat (Avena fatua); conditions: amount of applied herbicide 320 g/ha
Summary of the method: as §3

[11] = tested on: blackgrass; experiment: Test Example 4: herbicidal effect by soil treatment (Table 19, symbol J); assay type: in vivo, blackgrass (Alopecurus myosuroides); conditions: amount of applied herbicide 320 g/ha
Summary of the method: as §3

[12] = tested on: Italian ryegrass; experiment: Test Example 4: herbicidal effect by soil treatment (Table 19, symbol K); assay type: in vivo, Italian ryegrass (Lolium multiflorum); conditions: amount of applied herbicide 320 g/ha
Summary of the method: as §3

[13] = tested on: windgrass; experiment: Test Example 4: herbicidal effect by soil treatment (Table 19, symbol L); assay type: in vivo, windgrass (Apera spica-venti); conditions: amount of applied herbicide 320 g/ha
Summary of the method: as §3

[14] = tested on: velvetleaf; experiment: Test Example 4: herbicidal effect by soil treatment (Table 19, symbol M); assay type: in vivo, velvetleaf (Abutilon theophrasti); conditions: amount of applied herbicide 320 g/ha
Summary of the method: as §3

[15] = tested on: redroot pigweed; experiment: Test Example 4: herbicidal effect by soil treatment (Table 19, symbol N); assay type: in vivo, redroot pigweed (Amaranthus retroflexus); conditions: amount of applied herbicide 320 g/ha
Summary of the method: as §3

[16] = tested on: lambsquarters; experiment: Test Example 4: herbicidal effect by soil treatment (Table 19, symbol O); assay type: in vivo, lambsquarters (Chenopodium album); conditions: amount of applied herbicide 320 g/ha
Summary of the method: as §3

[17] = tested on: chickweed; experiment: Test Example 4: herbicidal effect by soil treatment (Table 19, symbol P); assay type: in vivo, common chickweed (Stellaria media); conditions: amount of applied herbicide 320 g/ha
Summary of the method: as §3

[18] = tested on: false cleavers; experiment: Test Example 4: herbicidal effect by soil treatment (Table 19, symbol Q); assay type: in vivo, false cleavers (Galium spurium); conditions: amount of applied herbicide 320 g/ha
Summary of the method: as §3

[19] = tested on: persian speedwell; experiment: Test Example 4: herbicidal effect by soil treatment (Table 19, symbol R); assay type: in vivo, Persian speedwell (Veronica persica); conditions: amount of applied herbicide 320 g/ha
Summary of the method: as §3

[20] = tested on: southern crabgrass; experiment: Test Example 5: herbicidal effect by foliage application, plastic box (Table 20, symbol F); assay type: in vivo, southern crabgrass (Digitaria ciliaris); conditions: foliage application, 320 g/ha, three weeks after application
Summary of the method: (§4)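 Plants were sown into sterilized diluvial soil under about 1.5 cm cover and kept in a greenhouse at 25° C. to 30° C. Fourteen days on, foliage received an even spray of the diluted emulsion. Herbicidal or crop effect was judged three weeks afterwards.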

[21] = tested on: green foxtail; experiment: Test Example 5: herbicidal effect by foliage application, plastic box (Table 20, symbol G); assay type: in vivo, green foxtail (Setaria viridis); conditions: foliage application, 320 g/ha, three weeks after application
Summary of the method: as §4

[22] = tested on: barnyard grass; experiment: Test Example 5: herbicidal effect by foliage application, plastic box (Table 20, symbol H); assay type: in vivo, barnyard grass (Echinochloa crus-galli); conditions: foliage application, 320 g/ha, three weeks after application
Summary of the method: as §4

[23] = tested on: wild oat; experiment: Test Example 5: herbicidal effect by foliage application, plastic box (Table 20, symbol I); assay type: in vivo, wild oat (Avena fatua); conditions: foliage application, 320 g/ha, three weeks after application
Summary of the method: as §4

[24] = tested on: blackgrass; experiment: Test Example 5: herbicidal effect by foliage application, plastic box (Table 20, symbol J); assay type: in vivo, blackgrass (Alopecurus myosuroides); conditions: foliage application, 320 g/ha, three weeks after application
Summary of the method: as §4

[25] = tested on: Italian ryegrass; experiment: Test Example 5: herbicidal effect by foliage application, plastic box (Table 20, symbol K); assay type: in vivo, Italian ryegrass (Lolium multiflorum); conditions: foliage application, 320 g/ha, three weeks after application
Summary of the method: as §4

[26] = tested on: windgrass; experiment: Test Example 5: herbicidal effect by foliage application, plastic box (Table 20, symbol L); assay type: in vivo, windgrass (Apera spica-venti); conditions: foliage application, 320 g/ha, three weeks after application
Summary of the method: as §4

[27] = tested on: velvetleaf; experiment: Test Example 5: herbicidal effect by foliage application, plastic box (Table 20, symbol M); assay type: in vivo, velvetleaf (Abutilon theophrasti); conditions: foliage application, 320 g/ha, three weeks after application
Summary of the method: as §4

[28] = tested on: redroot pigweed; experiment: Test Example 5: herbicidal effect by foliage application, plastic box (Table 20, symbol N); assay type: in vivo, redroot pigweed (Amaranthus retroflexus); conditions: foliage application, 320 g/ha, three weeks after application
Summary of the method: as §4

[29] = tested on: lambsquarters; experiment: Test Example 5: herbicidal effect by foliage application, plastic box (Table 20, symbol O); assay type: in vivo, lambsquarters (Chenopodium album); conditions: foliage application, 320 g/ha, three weeks after application
Summary of the method: as §4

[30] = tested on: chickweed; experiment: Test Example 5: herbicidal effect by foliage application, plastic box (Table 20, symbol P); assay type: in vivo, common chickweed (Stellaria media); conditions: foliage application, 320 g/ha, three weeks after application
Summary of the method: as §4

[31] = tested on: false cleavers; experiment: Test Example 5: herbicidal effect by foliage application, plastic box (Table 20, symbol Q); assay type: in vivo, false cleavers (Galium spurium); conditions: foliage application, 320 g/ha, three weeks after application
Summary of the method: as §4

[32] = tested on: persian speedwell; experiment: Test Example 5: herbicidal effect by foliage application, plastic box (Table 20, symbol R); assay type: in vivo, Persian speedwell (Veronica persica); conditions: foliage application, 320 g/ha, three weeks after application
Summary of the method: as §4

In the case of `CCCC(=O)Oc1c(C)nn(C)c(=O)c1-c1c(-c2ccc3c(c2)OCO3)sc2ccccc12` [1-088], the “herbicidal effect rating, A: late watergrass” value [1] is reported as 1 (Herbicidal rate of 5% or more and less than 20%), the “herbicidal effect rating, B: Japanese bulrush” value [2] is reported as 3 (Herbicidal rate of 40% or more and less than 70%) and the “herbicidal effect rating, C: oval-leafed pondweed” value [3] is reported as 4 (Herbicidal rate of 70% or more and less than 90%). For the same molecule, the “herbicidal effect on H (barnyard grass), rating 0-5” value [4] was 5 (Herbicidal rate of 90% or more (almost completely withered)), the “herbicidal effect on D (Chinese sprangletop), rating 0-5” value [5] was 3 (Herbicidal rate of 40% or more and less than 70%) and the “herbicidal effect on E (rice flat sedge), rating 0-5” value [6] was 5 (Herbicidal rate of 90% or more (almost completely withered)). For the same molecule, the “herbicidal effect rating, F: southern crabgrass” value [7] was 3 (Herbicidal rate of 40% or more and less than 70%), the “herbicidal effect rating, G: green foxtail” value [8] was 4 (Herbicidal rate of 70% or more and less than 90%) and the “herbicidal effect rating, H: barnyard grass” value [9] was 4 (Herbicidal rate of 70% or more and less than 90%). For the same molecule, the “herbicidal effect rating, I: wild oat” value [10] was 0 (Herbicidal rate of 5% or less (almost no effect)), the “herbicidal effect rating, J: blackgrass” value [11] was 0 (Herbicidal rate of 5% or less (almost no effect)) and the “herbicidal effect rating, K: Italian ryegrass” value [12] was 1 (Herbicidal rate of 5% or more and less than 20%). For the same molecule, the “herbicidal effect rating, L: windgrass” value [13] was 0 (Herbicidal rate of 5% or less (almost no effect)), the “herbicidal effect rating, M: velvetleaf” value [14] was 0 (Herbicidal rate of 5% or less (almost no effect)) and the “herbicidal effect rating, N: redroot pigweed” value [15] was 0 (Herbicidal rate of 5% or less (almost no effect)). The “herbicidal effect rating, O: lambsquarters” value [16] was 3 (Herbicidal rate of 40% or more and less than 70%), the “herbicidal effect rating, P: chickweed” value [17] was 4 (Herbicidal rate of 70% or more and less than 90%) and the “herbicidal effect rating, Q: false cleavers” value [18] was 0 (Herbicidal rate of 5% or less (almost no effect)). For the same molecule, the “herbicidal effect rating, R: persian speedwell” value [19] was 5 (Herbicidal rate of 90% or more (almost completely withered)), the “herbicidal effect grade, F: southern crabgrass” value [20] was 3 (Herbicidal rate of 40% or more and less than 70%) and the “herbicidal effect grade, G: green foxtail” value [21] was 4 (Herbicidal rate of 70% or more and less than 90%). For the same molecule, the “herbicidal effect grade, H: barnyard grass” value [22] was 3 (Herbicidal rate of 40% or more and less than 70%), the “herbicidal effect grade, I: wild oat” value [23] was 0 (Herbicidal rate of 5% or less (almost no effect)) and the “herbicidal effect grade, J: blackgrass” value [24] was 0 (Herbicidal rate of 5% or less (almost no effect)). The “herbicidal effect grade, K: Italian ryegrass” value [25] was 3 (Herbicidal rate of 40% or more and less than 70%), the “herbicidal effect grade, L: windgrass” value [26] was 0 (Herbicidal rate of 5% or less (almost no effect)) and the “herbicidal effect grade, M: velvetleaf” value [27] was 5 (Herbicidal rate of 90% or more (almost completely withered)). The “herbicidal effect grade, N: redroot pigweed” value [28] was 3 (Herbicidal rate of 40% or more and less than 70%), the “herbicidal effect grade, O: lambsquarters” value [29] was 3 (Herbicidal rate of 40% or more and less than 70%) and the “herbicidal effect grade, P: chickweed” value [30] was 5 (Herbicidal rate of 90% or more (almost completely withered)). For the same molecule, the “herbicidal effect grade, Q: false cleavers” value [31] was 0 (Herbicidal rate of 5% or less (almost no effect)) and the “herbicidal effect grade, R: persian speedwell” value [32] was 5 (Herbicidal rate of 90% or more (almost completely withered)).

Molecule `COc1ccccc1-c1sc2ccc(Cl)cc2c1-c1c(OC)c(C)nn(C)c1=O` [Compound No. 2-102, 4-(5-chloro-2-(2-methoxyphenyl)benzo[b]thiophen-3-yl)-5-methoxy-2,6-dimethylpyridazin-3(2H)-one] has a melting point of 174 to 175 °C.
